Drawing on BindingDB's records for doi:10.7270/Q2BV7F7H (Burnham Center For Chemical Genomics, 2012), this text covers IC50 for 19 compounds.

The IC50 is the point on the concentration scale where inhibition reaches its midpoint. A lower IC50 goes with greater potency in that assay.

Values joined by “and” are separate entries in the source; they are usually repeats but may differ in a detail not shown here. Identical values can stand only once.

Chain of Probable nicotinate-nucleotide adenylyltransferase (P65502 whole entry): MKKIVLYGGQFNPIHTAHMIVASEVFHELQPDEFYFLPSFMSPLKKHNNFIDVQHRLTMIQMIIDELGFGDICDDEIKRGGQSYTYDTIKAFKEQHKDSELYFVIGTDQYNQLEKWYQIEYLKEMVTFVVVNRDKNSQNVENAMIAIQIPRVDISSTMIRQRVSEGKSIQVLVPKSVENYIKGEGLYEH

This experiment concerns the target Probable nicotinate-nucleotide adenylyltransferase (Staphylococcus aureus (strain N315), UniProt P65502).
For the compound `O=C1C(=O)N(c2nc3ccc(Cl)cc3s2)C(c2ccco2)C1C(=O)c1ccco1` (centres undefined), the midpoint of inhibition, the IC50, lay at 56.8 µM.

Compound `CCOc1ccc(CN=Nc2ccc(S(=O)(=O)Nc3ccccc3C(=O)O)cc2[N+](=O)[O-])cc1` had an IC50 of 15.6 µM.

`O=C(O)Cc1sc(N=NCc2ccccc2)nc1-c1ccccc1` returned an IC50 of 27.7 µM.

`C1=NC2CCCC2C(N2CCCC2)=C1` (centres undefined) yielded a concentration for half-maximal inhibition (IC50) of 50 µM.

Regarding `Cc1ccccc1COc1ccc(C(=O)C2C(=O)C(=O)N(CCCn3ccnc3)C2c2ccco2)cc1` (centres undefined), the IC50 worked out at 80 µM.

Regarding `Cc1ccc(Nc2nnc(SCC(=O)C(C#N)c3nc4ccccc4[nH]3)s2)c(C)c1` (centres undefined) [2-(1,3-dihydrobenzimidazol-2-ylidene)-4-[[5-(2,4-dimethylanilino)-1,3,4-thiadiazol-2-yl]thio]-3-oxobutanenitrile], the IC50 is 26.7 µM and 21.4 µM.

Turning to `Cc1ccc(-n2[nH]c(C)c(C(c3cccc(O)c3)c3c(C)[nH]n(-c4ccc(C)c(C)c4)c3=O)c2=O)cc1C` [2-(3,4-dimethylphenyl)-4-[[1-(3,4-dimethylphenyl)-5-hydroxy-3-methyl-1H-pyrazol-4-yl](3-hydroxyphenyl)methyl]-5-methyl-2,4-dihydro-3H-pyrazol-3-one], half-maximal inhibition (IC50) was put at 15.1 µM.

Compound `N#CC1C(=S)N=C(N)C(c2nc(-c3ccccc3)cs2)C12CCCCC2` (centres undefined) [2-amino-4-mercapto-1-(4-phenyl-2-thiazolyl)-3-azaspiro[5.5]undeca-2,4-diene-5-carbonitrile] returned an IC50 of 23.2 µM.

`Cc1cc(N2C(=O)C(=O)C(C(=O)c3ccc(C)o3)C2c2ccc(OCc3ccccc3)cc2)no1` (centres undefined) [3-(5-methylfuran-2-yl)carbonyl-1-(5-methyl-1,2-oxazol-3-yl)-4-oxidanyl-2-(4-phenylmethoxyphenyl)-2H-pyrrol-5-one] displayed an IC50 of 28.9 µM.

In the case of `N#CC1C(=S)N=C(N)C(c2nc(-c3ccccc3)cs2)C12CCCC2` (centres undefined) [7-amino-9-mercapto-6-(4-phenyl-2-thiazolyl)-8-azaspiro[4.5]deca-7,9-diene-10-carbonitrile], the IC50 was 19.1 µM.

Compound `Cc1cccc(C)c1Nc1nnc(SCC(=O)C(C#N)c2nc3ccccc3[nH]2)s1` (centres undefined) [MLS000392242] came in with a 50% inhibitory concentration (IC50) of 25.2 µM.

The compound `CCc1nnc(NS(=O)(=O)c2ccc(N=CCC(=O)c3ccc4ccccc4c3)cc2)s1` [N-(5-Ethyl-[1,3,4]thiadiazol-2-yl)-4-(3-naphthalen-2-yl-3-oxo-propenylamino)-benzenesulfonamide] returned an IC50 of 29.7 µM.

As for `CC(=NNC(=O)c1cccc(N=NC(C)c2ccco2)c1)c1ccco1` (centres undefined) [N-[1-(2-furanyl)ethylideneamino]-3-[2-[1-(2-furanyl)ethylidene]hydrazinyl]benzamide], the IC50 came out at 14.8 µM.

The compound `Cc1ccc(-n2c(O)cc(N(CCc3ccccc3)C(=S)Nc3ccc(N(C)C)cc3)c2O)cc1` [SMR000159829] registered a half-inhibitory concentration (IC50) of 77.7 µM.

Turning to `Cc1[nH]n(-c2ccc(Cl)cc2)c(=O)c1C(c1ccccc1O)c1c(C)[nH]n(-c2ccc(Cl)cc2)c1=O` [SMR000171531], 21.1 µM corresponded to half-maximal inhibition (IC50).

For the compound `COc1cccc(OCc2cc(CN=Nc3ccc(C(=O)O)cc3)ccc2OC)c1` [SMR000415960], the IC50 was 25.5 µM.

As to `Nc1ccccc1C(=O)NNC(=O)C(=O)CC(=O)c1ccccc1` [SMR000427706], the IC50 worked out at 12 µM.

`C#CCN(C[C@@H]1c2c(c(O)n(-c3ccccc3)c2O)C[C@@H](OC(=O)Nc2cccs2)[C@H]1OC(=O)Nc1cccs1)S(=O)(=O)c1ccc(C)cc1` [[(3aR,5R,6S,7S,7aS)-7-[[(4-methylphenyl)sulfonyl-prop-2-ynyl-amino]methyl]-1,3-bis(oxidanylidene)-2-phenyl-6-(thiophen-2-ylcarbamoyloxy)-3a,4,5,6,7,7a-hexahydroisoindol-5-yl] N-thiophen-2-ylcarbamate] showed an IC50 of 34.5 µM.

As to `CCOC(=O)c1ccccc1-n1c(O)c2c(c1O)C(C=Cc1ccccc1)c1sc(=O)[nH]c1S2` (centres undefined) [ethyl 2-[2,5,7-trioxo-8-[(E)-2-phenylethenyl]-3,4a,7a,8-tetrahydropyrrolo[2,3]thiopyrano[4,5-b][1,3]thiazol-6-yl]benzoate], the IC50 was 45.9 µM.
